Experimental data reported in patent US20020136789A1, “Use of tagetes minuta oil and its components as antiviral agents” (COUNCIL OF SCIENTIFIC & INDUSTRIAL RESEARCH, priority 2001, published 2002).
Several values for one entry are separate records, joined by “and”; a condition that tells them apart may be missing. Equal entries are not always repeated.

Key:
CaMV = conditions: in vivo; cited from earlier work
BGMV = conditions: in vivo; cited from earlier work
TMV = conditions: except during very early replicative steps following inoculation; cited from earlier work
PVX [1] = conditions: susceptible viruses such as PVX; cited from earlier work
PNRSV = conditions: in vivo; cited from earlier work
PVX [2] = conditions: cited from earlier work
SSV = conditions: in vivo; cited from earlier work
8 bacterial strains = conditions: cited from earlier work
HIV replication = conditions: cited from earlier work
[3] = test system: Carnation ring spot virus (CaRSV); assay: Local lesion assay of CaRSV on Chenopodium amaranticolor leaves (test half leaf vs virus+buffer control); format: in vivo; conditions: for Percentage Inhibition of CaRSV, IInd Treatment: compounds after extraction, summary of three experiments; for Percentage Inhibition of CaRSV, IIIrd Treatment: compounds after storing at 0° C.; for No. of Lesions on Test / % inhibition / Average No. of lesions Test / Test (number of lesions): CaRSV; for No. of Lesions on Test: 24 hrs room temperature, ten leaves; for No. of Lesions on Test / % inhibition / Average No. of lesions Test: Chenopodium amaranticolor; for Test (number of lesions): compound stored at 0° C. for two months; for antiviral activity against CaRSV (in words): components tested individually in pure form
Protocol: (§1) Each concentration of whole Tagetes minuta oil and its pure isolated components were applied on 10 leaves so that the average could be taken.
(§2) The whole oil of Tagetes minuta and its pure components i.e. ocimene and dihydrotagetone were tested individually with virus cultures of CaVMV and CaRSV and applied on the leaves of Chenopodium amaranticolor. In all the experiments each concentration of three testing mixtures were applied on ten leaves of Chenopodium amaranticolor palnt. The isolated compounds were stored at 0° C. for two months and the experiments were repeated.
(§3) The Cultures of Carnation ring spot and Carnation vein motto viruses were maintained both in natural host and on Phaseolus vulgaris and Chenopodium quinoa which are maintenance and propagation host of these viruses respectively. For virus culture, leaves of fifteen days old individual virus inoculated host plants with CaVMV and CaRSV were ground in phosphate buffer pH 7.5 and the viruses were extracted separately in crude sap.
(§4) Activity of the above volatile oils were tested against Carnation ring spot and Carnation vein mottle virus in different dilutions. Most of the tests were performed by using 0.5% and 2.5% concentration of essential oils as the phytotoxic effect appeared on Chenopodium amaranticolor leaves, at higher concentrations. The 0.5% and 2.5% concentration of essential oils were mixed with crude sap containing each virus and incubated at room temperature for 24 hrs. After incubation, sap containing virus were inoculated individually on bioassay host Chenopodium amaranticolor after adding Cellite (as abrasive) to monitor the inhibitory effect. Following results were obtained in different concentrations.

[4] = test system: Carnation vein mottle virus (CaVMV); assay: Local lesion assay of CaVMV on Chenopodium amaranticolor leaves (test half leaf vs virus+buffer control); format: in vivo; conditions: for Percentage Inhibition of CaVMV, IInd Treatment: compounds after extraction, summary of three experiments; for Percentage Inhibition of CaVMV, IIIrd Treatment: compounds after storing at 0° C.; for No. of Lesions on Test / % inhibition / Average No. of lesions Test / Test (number of lesions): CaVMV; for No. of Lesions on Test: 24 hrs room temperature, ten leaves; for No. of Lesions on Test / % inhibition / Average No. of lesions Test: Chenopodium amaranticolor; for Test (number of lesions): compound stored at 0° C. for two months; for antiviral activity against CaVMV (in words): components tested individually in pure form
Protocol: as §1, §2, §3, §4

Cox B1 = conditions: concentrations 12-47 μg/ml; cited from earlier work
HSV-1 = conditions: concentrations 12-47 μg/ml; cited from earlier work
mosquito = conditions: in vivo; cited from earlier work
[5] = 0.5% concentration mixed with crude sap
[6] = 2.5% concentration mixed with crude sap

NC(=O)c1ncn([C@@H]2O[C@H](CO)[C@@H](O)[C@H]2O)n1 [ribavirin, Ribavirin]
effectiveness against CaMV (CaMV): relatively or completely ineffective | effectiveness against BGMV (BGMV): relatively or completely ineffective | susceptibility of TMV (TMV): much less susceptible than other viruses | concentration needed to inhibit local lesion development and to prevent infection (PVX [1]): Approximately 1000 ppm | susceptibility of PNRSV (PNRSV): resistant | developing shoots into which virus spread was prevented (PVX [2]; 10 ppm, differentiating calli): 90% | inhibition of PVX in callus culture (PVX [2]; 100 ppm in the medium): not inhibited | effectiveness against SSV (SSV): relatively or completely ineffective

CC12CCC(CC1=O)C2(C)C (stereo not shown) [Camphor, camphor]
activity against 8 bacterial strains (8 bacterial strains): almost inactive

CC1=CC[C@@H]([C@@H](C)[C@H]2CC[C@@]3(C)C4=C(C=C(CCC(=O)O)C(=C(C)C)C=C4)CC[C@]23C)OC1=O [Compound 3]
therapeutic index (HIV replication; HIV replication): greater than 71.4 | EC50, inhibition of HIV replication (HIV replication): 1400 µg/mL

CC12CCC(CC1)C(C)(C)O2 [1,8 cineole]
activity against 8 bacterial strains (8 bacterial strains): exhibited activity

C=CC(C)CC(=O)CC(C)C (stereo not shown) [Dihydrotagetone, dihydrotagetone]
Percentage Inhibition of CaRSV, IInd Treatment ([3]; 0.5%): 71.6% | Percentage Inhibition of CaRSV, IIIrd Treatment ([3]; 0.5%): 100% | Percentage Inhibition of CaRSV, IInd Treatment ([3]; 2.5%): 81.06% | Percentage Inhibition of CaRSV, IIIrd Treatment ([3]; 2.5%): 100% | No. of Lesions on Test [3, 5]: 32 and 41 and 42 | % inhibition ([3]; 0.5% concentration): 72.1% and 70.9% and 72.0% | Average No. of lesions Test ([3]; 0.5% concentration): 4.22 and 4.44 and 5.00 | Test (number of lesions) ([3]; 0.5% concentration): 0 | % inhibition ([3]; 2.5% concentration): 81.8% and 82.0% and 79.4% | Average No. of lesions Test ([3]; 2.5% concentration): 2.8 and 2.5 and 4.0 | Test (number of lesions) ([3]; 2.5% concentration): 0 | antiviral activity against CaRSV (in words) [3]: enhanced antiviral activity | Percentage Inhibition of CaVMV, IInd Treatment ([4]; 0.5%): 72.2% | Percentage Inhibition of CaVMV, IIIrd Treatment ([4]; 0.5%): 100% | Percentage Inhibition of CaVMV, IInd Treatment ([4]; 2.5%): 83.6% | Percentage Inhibition of CaVMV, IIIrd Treatment ([4]; 2.5%): 100% | No. of Lesions on Test [4, 5]: 38 and 40 and 45 | % inhibition ([4]; 0.5% concentration): 73.04% and 73.3% and 70.3% | Average No. of lesions Test ([4]; 0.5% concentration): 4.22 and 4.44 and 5.00 | Test (number of lesions) ([4]; 0.5% concentration): 0 | No. of Lesions on Test [4, 6]: 31 and 25 and 38 | % inhibition ([4]; 2.5% concentration): 83.0% and 87.0% and 81.0% | Average No. of lesions Test ([4]; 2.5% concentration): 3.44 and 2.77 and 4.20 | Test (number of lesions) ([4]; 2.5% concentration): 0 | antiviral activity against CaVMV (in words) [4]: enhanced antiviral activity

C=C/C(C)=C\CC=C(C)C [Ocimene, Z-β-ocimene]
Percentage Inhibition of CaRSV, IInd Treatment ([3]; 0.5%): 67.9% | Percentage Inhibition of CaRSV, IIIrd Treatment ([3]; 0.5%): 100% | Percentage Inhibition of CaRSV, IInd Treatment ([3]; 2.5%): 80.9% | Percentage Inhibition of CaRSV, IIIrd Treatment ([3]; 2.5%): 100% | No. of Lesions on Test [3, 5]: 60 and 65 and 58 | % inhibition ([3]; 0.5% concentration): 69.6% and 66.6% and 67.7% | Average No. of lesions Test ([3]; 0.5% concentration): 6.0 and 6.5 and 5.8 | Test (number of lesions) ([3]; 0.5% concentration): 0 | No. of Lesions on Test [3, 6]: 40 and 25 and 35 | % inhibition ([3]; 2.5% concentration): 80.4% and 81.4% and 81.0% | Average No. of lesions Test ([3]; 2.5% concentration): 4.0 and 2.5 and 3.5 | Test (number of lesions) ([3]; 2.5% concentration): 0 | antiviral activity against CaRSV (in words) [3]: enhanced antiviral activity | Percentage Inhibition of CaVMV, IInd Treatment ([4]; 0.5%): 70.2% | Percentage Inhibition of CaVMV, IIIrd Treatment ([4]; 0.5%): 100% | Percentage Inhibition of CaVMV, IInd Treatment ([4]; 2.5%): 84.3% | Percentage Inhibition of CaVMV, IIIrd Treatment ([4]; 2.5%): 100% | No. of Lesions on Test [4, 5]: 66 and 70 and 65 | % inhibition ([4]; 0.5% concentration): 71.05% and 63.50% and 72.1% | Average No. of lesions Test ([4]; 0.5% concentration): 6.6 and 7.0 and 6.5 | Test (number of lesions) ([4]; 0.5% concentration): 0 | No. of Lesions on Test [4, 6]: 43 and 40 and 38 | % inhibition ([4]; 2.5% concentration): 83.58% and 84.00% and 85.66% | Average No. of lesions Test ([4]; 2.5% concentration): 4.3 and 4.0 and 3.8 | Test (number of lesions) ([4]; 2.5% concentration): 0 | antiviral activity against CaVMV (in words) [4]: enhanced antiviral activity

CC(C)[C@]12CC(=O)[C@H](C)[C@H]1C2 [thujone]
activity against 8 bacterial strains (8 bacterial strains): exhibited activity

O=c1c(O)c(-c2ccccc2)oc2cc(O)cc(O)c12 [galangin]
antiviral activity against Cox B1 (Cox B1): significant antiviral activity | antiviral activity against HSV-1 (HSV-1): significant antiviral activity

C=C/C(C)=C/C(=O)C=C(C)C [5-E Ocimenone]
mosquito larvaecideal activity (mosquito): mosquito larvaecideal activity
